Data published in patent US8895608B2, “Sulfonamide anti-viral compounds” (Kineta, Inc., priority 2010, dated 2014).
Entries after “also recorded” stand apart in the source; their conditions may differ.

What was measured:
[1] = system: Huh7 cells; assay: MTS assay to determine cytotoxicity; type: cell-based, human; settings: 24 hours, up to 50 μM
Experimental: MTS assay to determine cytotoxicity. Cultured human Huh7 cells are treated with increasing amounts of KIN600 or equivalent amounts of DMSO diluted in media for 24 hours to see their effect on cell viability.
Cell Titer One (Promega) is the one step reagent used according to manufacturer's protocol, and cells are incubated for three hours in the presence of reagent before O.D. reading is done. Compounds were diluted to final concentrations of 0, 5, 10, 20, and 50 μM in media containing 0.5% DMSO. Negative control wells contain no compound and positive control for cytotoxicity is examined using an EMCV infection which causes 100% cytopathic effect. Each compound concentration and control is done in triplicate wells to generate error bars.
Final KIN600 concentrations of 50 μM, 20 μM, 10 μM, and 5 μM were made in 0.5% DMSO containing media and were added to Huh7 cells to examine cytotoxicity in a MTS assay. Cells were treated for 24 hours with varying concentrations of compound and were analyzed for cell viability compared to negative control samples that were not treated with compound but grown in DMSO containing media. The cellular metabolism (O.D.) was in the range of 1.75 to below 2.0 at compound concentrations of 50 μM, 20 μM, 10 μM, 5 μM, and 0.

[2] = system: HCV2a virus; assay: HCV IF antiviral assay; type: cell-based, Hepatitis C virus
[3] = system: Murine Encephalomyocarditis virus (EMCV); assay: EMCV antiviral assay (cell viability by MTS after infection); settings: Huh7 cells, 250 pfu EMCV, 18 hours

COC(=O)c1sccc1S(=O)(=O)Nc1ccc2c(c1)OCO2 [KIN600]
cytotoxicity (result in words) [1]: no significant cytotoxicity; also recorded: no significant toxicity | HCV infected foci (number of FFU/well) ([2]; Huh7 cells pre-treated 24 hours at 10 μM, HCV2a MOI 0.1-0.5): 12±4 FFU/well | antiviral activity against HCV (result in words) ([2]; Huh7 cells, HCV2a): showed antiviral activity; also recorded: has antiviral properties | Cell viability post-infection ([3]; 5 μL): ~0.7 | Cell viability post-infection ([3]; 10 μL): ~1.4
